Reference: publication PMC7747594, “Protease-activated receptor-2 ligands reveal orthosteric and allosteric mechanisms of receptor inhibition” (Communications Biology, 2020)
Values belong to the compound of their own block, whether it stands above or below them. Square brackets hold non-standard residues; d marks the D form. Peptide text beside a SMILES is read from it. * marks the point of attachment. Orn = NCCC[C@H](N)C(=O)O; 2Furoyl = O=C(c1ccco1)*

Assays:
hPAR2 [1] = target: T1, hPAR2 (Homo sapiens, UniProt P55085); assay: Schild and allosteric model analysis of Ca^2+ mobilisation in CHO-hPAR2 cells (2f-LIGRL-NH2 or trypsin); assay type: cell-based
T1 sequence (P55085 26-397): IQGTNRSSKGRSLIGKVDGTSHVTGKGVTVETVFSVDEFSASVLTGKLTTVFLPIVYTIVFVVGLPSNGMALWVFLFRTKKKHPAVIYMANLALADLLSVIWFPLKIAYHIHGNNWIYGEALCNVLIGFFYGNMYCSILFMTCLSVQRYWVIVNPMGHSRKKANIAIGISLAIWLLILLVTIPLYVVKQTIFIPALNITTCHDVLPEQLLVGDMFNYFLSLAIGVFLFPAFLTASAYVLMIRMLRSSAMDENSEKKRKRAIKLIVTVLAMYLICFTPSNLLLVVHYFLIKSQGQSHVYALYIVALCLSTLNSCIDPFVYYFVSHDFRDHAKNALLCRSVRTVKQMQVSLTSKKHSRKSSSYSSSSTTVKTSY
Method: Cells were loaded with Fluo-8 NW calcium dye (AAT Bioquest) for 30 min at 37 °C before compounds in Hank’s balanced salt solution (HBSS, ThermoFisher Scientific) with 20 mM HEPES (ThermoFisher Scientific), 0.1% bovine serum albumin (BSA, Sigma) and 0.5% DMSO were added and simultaneously evaluated for changes in intracellular [Ca^2+] using FLIPR TETRA (Molecular Devices) to detect agonism. For each concentration, the difference between the maximum peak Ca^2+ response and baseline response is reported. […] Antagonism experiments were also carried out on 1321N1-PAR2[WT], 1321N1-PAR2[F154A], and 1321N1-PAR2[G157C] as described. Experiments with trypsin in 1321N1-hPAR2 cells were performed in the presence of 1 µM Vorapaxar (Chemtronica) to remove any interference of PAR1 activity. […] Antagonism experiments for CHO-hPAR2 and HT-29 cells were performed in 96-well plates at 30,000 cells/well. Cells were loaded with Fluo-3 AM calcium dye (Sigma-Aldrich) for 60 min at 37 °C in HBSS with 1% FBS, 0.2% pluronic acid, 20 mM HEPES and 2.5 mM probenecid prior to the addition of antagonist. The antagonist was pre-incubated for 60 min at 37 °C followed by the addition of bovine trypsin (30 nM) at EC80. Intracellular [Ca^2+] flux was measured using FLIPR TETRA (Molecular Devices) and the difference between the maximum peak Ca^2+ response and baseline response is reported.
(§1) Binding data were analysed using the One site – Fit Ki model in GraphPad Prism 8 (GraphPad Software) to determine binding affinity. Pharmacology in vitro potency data was analysed with a 4-parameter logistic fit using the equation y = Bottom + (Top − Bottom)/[…] where y is the response, x is the 10-logarithm of the drug concentration, Bottom is no response and Top is full response in GraphPad Prism 8 or Genedata Screener (Genedata). pEC50 and pIC50 data are presented as mean ± standard error of the mean (s.e.m.) derived from the number of independent experiments stated. Schild slope analysis was calculated using Graphpad Prism 8 Gaddum/Schild EC50 global fitting (shared model parameters between all data sets) competitive model. […] Schild slope quantifies the shifts in agonist response in the presence of antagonist, a Schild slope of 1 indicates the antagonist is competitive and extra-sum-of-squares F-test (p < 0.05) was used to compare the calculated Schild slope against a hypothetical Schild slope of 1. […] The relative activity was calculated using (EmaxEC50’)/(Emax’EC50) with the Hill slope help constant at 1. EC50’ and Emax’ denote the EC50 and Emax in the absence of allosteric modulator, while EC50 and Emax denote those measured in the presence of allosteric modulator. When the Hill slope = 1, the relative activity plot approaches an asymptote corresponding to the estimate of the γ value.

hPAR2 [2] = target: T1, hPAR2; assay: Europium-tagged competition binding assay against Eu-tagged-2f-LIGRLO(dtpa)-NH2 on CHO-hPAR2 cells; set-up: expressed in transfected cells; host or cells: Flp-In CHO; settings: determined with Eu-tagged-2f-LIGRLO(dtpa)-NH2; read-out: equilibrium dissociation constant pKA / pKB (converted)
Method: CHO-hPAR2 cells were seeded overnight in 384-well plate at 2.5 × 10^4 cells/well and blocked with 2% BSA for 60 min. […] Cells were washed 3× with PBS supplemented with 20 µM EDTA, 0.01% Tween and 0.2% BSA followed by addition of DELFIA Enhancement Solution (Perkin Elmer) for 90 min. Time-resolved fluorescence was measured with PHERAstar FS reader (BMG Labtech).
as §1

rat PAR2 = target: T2, rat PAR2 (Rattus norvegicus, UniProt Q63645); assay: Ca^2+ flux assay, inhibition of SLIGRL-NH2 activation in rat KNRK cells; assay type: cell-based
T2 construct: a rat KNRK cell line with endogenous expression of rat PAR2; host or cells: rat KNRK cells
T2 sequence (Q63645 26-397): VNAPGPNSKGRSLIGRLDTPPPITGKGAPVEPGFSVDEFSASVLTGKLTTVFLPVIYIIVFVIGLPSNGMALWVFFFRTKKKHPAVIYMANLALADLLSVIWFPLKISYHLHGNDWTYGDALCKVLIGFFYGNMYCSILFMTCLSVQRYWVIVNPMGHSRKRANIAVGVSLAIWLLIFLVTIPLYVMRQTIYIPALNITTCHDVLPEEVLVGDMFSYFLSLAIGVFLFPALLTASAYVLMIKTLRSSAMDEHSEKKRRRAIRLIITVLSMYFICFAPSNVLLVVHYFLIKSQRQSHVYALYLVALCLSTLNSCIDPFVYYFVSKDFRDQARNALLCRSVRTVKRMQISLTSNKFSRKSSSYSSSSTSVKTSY

SMILES: CC[C@H](C)[C@H](NC(=O)[C@H](CC(C)C)NC(=O)c1ccco1)C(=O)NCC(=O)N[C@@H](CCCNC(=N)N)C(=O)N[C@@H](CC(C)C)C(N)=O [2f-LIGRL-NH2, reference compound]
EC50 (hPAR2 [1]): 250 nM

Kb (hPAR2 [2]): 794 nM
SMILES: CC[C@H](C)[C@H](NC(=O)[C@H](CC(C)C)NC(=O)c1ccco1)C(=O)NCC(=O)N[C@@H](CCCN=C(N)N)C(=O)N[C@@H](CC(C)C)C(=O)N[C@@H](CCCN)C(N)=O [2f-LIGRLO-NH2, reference compound] (2Furoyl-LIGRL[Orn]-NH2)

IC50 (rat PAR2): 3160 nM
SMILES: CCc1ccc2c(F)ccc(C(O)c3ncc[nH]3)n12 (stereo not drawn) [AZ0107]
